From patent US20220315572A1, “SUBSTITUTED CYANOPYRROLIDINES WITH ACTIVITY AS USP30 INHIBITORS” (MISSION THERAPEUTICS LIMITED, priority 2019, published 2022)
In brackets after ≈: the same amount, converted by molar mass.

Assays:
Turbidimetric solubility = type: physicochemical; details: aqueous buffer, kinetic from dmso stock
Source text: Turbidimetric solubility: Test compound solution prepared in DMSO diluted into aqueous buffer.
Turbidimetry is used as the end-point by measuring absorbance at 620 nm.

Log D = type: physicochemical; details: pH 7.4; read-out: Log D measured at pH 7.4
Source text: log D: distribution co-efficient; lipophilicity measurement.

[1] = tested on: Eurofins CEREP SafetyScreen44 panel; experiment: Eurofins CEREP SafetyScreen44 panel; type: binding; details: single concentration of 10 μM, all targets in the panel
Source text: Aside from selectivity over other DUB enzymes, it is important for a drug to have low affinity for other targets, and pharmacological profiling may be performed against panels of targets to assess the potential for, and to minimise, potential off-target effects. Examples of targets for which the compounds of the present invention may be screened against are those of the industry standard Eurofins-Cerep SafetyScreen44 panel, which includes 44 targets as a representative selection of GPCR receptors, transporters, ion channels, nuclear receptors, and kinase and non-kinase enzymes. Preferably, compounds of the invention have insignificant affinity against targets of this screening panel. Further examples of targets for which the compounds of the present invention may be screened against are kinases of the Thermo Fisher SelectScreen kinase profiling panel, which includes 39 targets as a representative selection of kinase enzymes. Preferably, compounds of the invention have insignificant affinity against targets of this screening panel. Additionally, examples of a particular enzyme class for which the compounds of the present invention may be screened against are the cathepsins (e.g. cathepsin A, B, C, H, K, L, S, V and Z). Preferably, compounds of the invention have good selectivity for USP30 over one or more of these enzymes. […]

TOM20 ubiquitylation = experiment: TOM20-ubiquitylation assay; type: cell-based, Human; details: antimycin A/oligomycin mitophagy trigger; n = 5, (0.015-0.075) printed below
Source text: Human cell lines can be challenged with mitochondrial depolarizing agents (ionophores (eg. CCCP, valinomycin), mitochondrial complex inhibitors (oligomycin, antimycin A)) to induce ubiquitylation of TOM20, which is then further promoted in the presence of USP30 inhibitors. TOM20 ubiquitylation is subsequently assessed through western blotting of the cell lysates, with TOM20 ubiquitylation adduct detection possible due to an 8 kDa molecule weight increase for each molecule of ubiquitin added, resulting in laddering of a TOM20 immunoreactive band. TOM20-ubiquitylation levels can be quantified using chemiluminescence densitometry of laddered immunoreactive bands.

## C[C@@H]1C[C@@H](NC(=O)c2nnc(-c3cccc(C#N)c3)o2)CN1C#N [Example 1, N-((3R,5R)-1-Cyano-5-methylpyrrolidin-3-yl)-5-(3-cyanophenyl)-1,3,4-oxadiazole-2-carboxamide]
Turbidimetric solubility
  solubility: 65 µM (≈ 21 µg/mL)
Log D
  logD: 1.3
[1]
  inhibition of binding or enzyme activity: less than 25%
TOM20 ubiquitylation
  TOM20-Ub 1.5-fold gain EC1.5x (μM): 0.035 (n = 5) μM
